# ChEMBL document CHEMBL1201862, “PubChem BioAssay data set” (2004)
#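 Interpolation was linear, between the two tested concentrations surrounding the appropriate level; five concentrations were tested over 48 hours in 96-well plates. GI50 marks 50% less growth.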 Activity calls are given as the source filed them. Rule as the data show it: active = GI50 up to about 1.1 µM and inactive = higher.
# Legend:
# Test in all cases: NCI anticancer screen, dose series, 48 h
# MDA-N = system: MDA-N
# HCT-15 = system: HCT-15
# NCI-H522 = system: NCI-H522
# UACC-257 = system: UACC-257
# Malme-3M = system: Malme-3M
# RPMI-8226 = system: RPMI-8226
# A549 = system: A549
# ACHN = system: ACHN
# UO-31 = system: UO-31
# SK-MEL-2 = system: SK-MEL-2
# DU-145 = system: DU-145
# SNB-75 = system: SNB-75
# MDA-MB-231 = system: MDA-MB-231
# TK-10 = system: TK-10
# SW-620 = system: SW-620
# KM12 = system: KM12
# SK-OV-3 = system: SK-OV-3
# Hs-578T = system: Hs-578T
# IGROV-1 = system: IGROV-1
SMILES,GI50 (MDA-N),GI50 (HCT-15) [µM],GI50 (NCI-H522),GI50 (UACC-257),GI50 (Malme-3M),GI50 (RPMI-8226),GI50 (A549),GI50 (ACHN),GI50 (UO-31),GI50 (SK-MEL-2),GI50 (DU-145),GI50 (SNB-75),GI50 (MDA-MB-231),GI50 (TK-10),GI50 (SW-620),GI50 (KM12),GI50 (SK-OV-3),GI50 (Hs-578T),GI50 (IGROV-1)
CC(C)(C)CC(C)(C)c1ccc(O)c(C[N+](C)(C)[O-])c1,> 100 µM (inactive),> 100,53.5 µM (inactive),> 100 µM (inactive),> 100 µM (inactive),62.2 µM (inactive),> 100 µM (inactive),> 100 µM (inactive),60.1 µM (inactive),> 100 µM (inactive),> 100 µM (inactive),91.2 µM (inactive),> 100 µM (inactive),> 100 µM (inactive),> 100 µM (inactive),> 100 µM (inactive),> 100 µM (inactive),65.6 µM (inactive),> 100 µM (inactive)
O=C1C(CN2CCCC2)CCCC1CN1CCCC1 (stereo not given),7.59 µM (inactive),2.19,0.0495 µM (active),2.1 µM (inactive),0.611 µM (active),0.9 µM (active),19.8 µM (inactive),1.82 µM (inactive),0.791 µM (active),18.5 µM (inactive),19.8 µM (inactive),19.7 µM (inactive),15.8 µM (inactive),2.19 µM (inactive),0.129 µM (active),19.7 µM (inactive),17.4 µM (inactive),28 µM (inactive),17.1 µM (inactive)
CC(C)c1nc2c(Cl)c3ncccc3cc2[nH]c1=O,> 100 µM (inactive),74,16.7 µM (inactive),> 100 µM (inactive),> 100 µM (inactive),> 100 µM (inactive),> 100 µM (inactive),44 µM (inactive),> 100 µM (inactive),> 100 µM (inactive),> 100 µM (inactive),26.4 µM (inactive),73.6 µM (inactive),–,> 100 µM (inactive),80.4 µM (inactive),> 100 µM (inactive),25.8 µM (inactive),14.8 µM (inactive)
Clc1ccc(OCc2nnc(CCCCCCCCc3nnc(COc4ccc(Cl)cc4)n3Nc3ccccc3)n2Nc2ccccc2)cc1,1.6 µM (inactive),4.06,2.82 µM (inactive),7.35 µM (inactive),12.5 µM (inactive),0.21 µM (active),1.19 µM (inactive),1.16 µM (inactive),2.04 µM (inactive),16.1 µM (inactive),19.1 µM (inactive),52.4 µM (inactive),26.2 µM (inactive),23.7 µM (inactive),16.9 µM (inactive),11.2 µM (inactive),17.1 µM (inactive),22.9 µM (inactive),7.23 µM (inactive)
COc1ccc(/C=C/C(=O)c2cccc(C(=O)/C=C/c3ccc(OC)c(OC)c3)n2)cc1OC,15.7 µM (inactive),14,4.75 µM (inactive),39.6 µM (inactive),24.5 µM (inactive),3.23 µM (inactive),> 100 µM (inactive),25.8 µM (inactive),16.4 µM (inactive),> 100 µM (inactive),> 100 µM (inactive),> 100 µM (inactive),25.4 µM (inactive),> 100 µM (inactive),3.53 µM (inactive),> 55.6 µM (inactive),> 100 µM (inactive),> 48.2 µM (inactive),25.9 µM (inactive)
O=C1CSC2(CC(/C=C/c3cccc(Br)c3)=NN2c2cccc(S(=O)(=O)O)c2)N1c1nc2ccccc2s1 (stereo not given),> 100 µM (inactive),> 100,58.5 µM (inactive),> 100 µM (inactive),> 100 µM (inactive),25.5 µM (inactive),> 100 µM (inactive),> 100 µM (inactive),> 96.6 µM (inactive),> 100 µM (inactive),> 100 µM (inactive),> 100 µM (inactive),> 100 µM (inactive),> 100 µM (inactive),> 100 µM (inactive),> 90.8 µM (inactive),> 100 µM (inactive),> 100 µM (inactive),58.6 µM (inactive)
C/C(=N\NC1=NCCN1)c1cn(C2=NCCN2)nc1C,> 100 µM (inactive),> 100,> 100 µM (inactive),> 100 µM (inactive),> 100 µM (inactive),> 100 µM (inactive),> 100 µM (inactive),> 100 µM (inactive),> 100 µM (inactive),> 100 µM (inactive),> 100 µM (inactive),77.6 µM (inactive),> 100 µM (inactive),> 100 µM (inactive),> 100 µM (inactive),> 100 µM (inactive),> 100 µM (inactive),> 100 µM (inactive),> 100 µM (inactive)
CC(=O)CN/C(C)=N/Nc1ccc([N+](=O)[O-])cc1[N+](=O)[O-],> 100 µM (inactive),> 100,> 100 µM (inactive),–,70.5 µM (inactive),> 100 µM (inactive),> 100 µM (inactive),94.4 µM (inactive),> 100 µM (inactive),> 100 µM (inactive),> 100 µM (inactive),> 100 µM (inactive),> 100 µM (inactive),–,> 100 µM (inactive),–,> 100 µM (inactive),> 100 µM (inactive),> 100 µM (inactive)
COc1cc2[nH]c(=O)[nH]c2c2c(C)c[nH]c12,> 100 µM (inactive),> 100,> 100 µM (inactive),> 100 µM (inactive),> 100 µM (inactive),> 100 µM (inactive),> 100 µM (inactive),> 100 µM (inactive),> 100 µM (inactive),> 100 µM (inactive),> 100 µM (inactive),> 100 µM (inactive),> 100 µM (inactive),> 100 µM (inactive),> 100 µM (inactive),> 100 µM (inactive),> 100 µM (inactive),> 100 µM (inactive),> 100 µM (inactive)
O=C(O)CC1NC(/C(=C/c2ccccc2O)NC(=O)c2ccccc2)OC1=O (stereo not given),29.4 µM (inactive),30,33 µM (inactive),> 58.5 µM (inactive),55.7 µM (inactive),> 100 µM (inactive),> 100 µM (inactive),19.3 µM (inactive),33.9 µM (inactive),47.2 µM (inactive),> 79.6 µM (inactive),7.21 µM (inactive),22.1 µM (inactive),61 µM (inactive),> 100 µM (inactive),5.14 µM (inactive),23 µM (inactive),24.7 µM (inactive),14.3 µM (inactive)
CN(C)CCNC(=O)c1cc([N+](=O)[O-])cn1C,> 100 µM (inactive),> 100,> 100 µM (inactive),> 100 µM (inactive),> 100 µM (inactive),> 100 µM (inactive),> 100 µM (inactive),> 100 µM (inactive),> 100 µM (inactive),> 100 µM (inactive),> 100 µM (inactive),> 100 µM (inactive),> 100 µM (inactive),> 100 µM (inactive),> 100 µM (inactive),> 100 µM (inactive),> 100 µM (inactive),> 100 µM (inactive),> 100 µM (inactive)
